Experimental data reported in PubChem BioAssay AID1671245.

Biological target: Casein kinase I isoform epsilon (Homo sapiens) (UniProt P49674)
Test: CSNK1E kinase inhibitors, dose response, biochemical, Z'-LYTE, FRET, direct format (AID 1671245)
Conditions: Z'-LYTE FRET kinase activity assay, recombinant CSNK1E

Casein kinase I isoform epsilon (Homo sapiens), sequence (P49674 whole entry, looked up, canonical isoform): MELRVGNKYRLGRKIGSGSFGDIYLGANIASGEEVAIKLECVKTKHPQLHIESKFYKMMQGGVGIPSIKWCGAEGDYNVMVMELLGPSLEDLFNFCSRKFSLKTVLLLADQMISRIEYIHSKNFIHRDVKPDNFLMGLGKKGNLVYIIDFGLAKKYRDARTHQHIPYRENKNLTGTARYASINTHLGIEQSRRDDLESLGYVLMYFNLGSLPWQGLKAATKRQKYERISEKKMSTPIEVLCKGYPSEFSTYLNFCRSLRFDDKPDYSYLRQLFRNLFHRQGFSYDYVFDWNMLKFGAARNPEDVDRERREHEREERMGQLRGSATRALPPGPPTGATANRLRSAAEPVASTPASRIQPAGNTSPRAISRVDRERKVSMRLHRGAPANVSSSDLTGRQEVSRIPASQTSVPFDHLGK

IC50: 4.83 µM
Compound: Brc1c(Br)c(Br)c2n[nH]nc2c1Br
